Results from patent US20190381180A1, “HYBRID CARRIERS FOR NUCLEIC ACID CARGO” (CureVac AG, priority 2016, published 2019).

How the values were obtained:
Sol8 cells = test: Transfection of Sol8 muscle cells in vitro; type: cell-based, Mus musculus; conditions: very small amount of lipid, in combination with low- and high-charge ratio complexes
Description: A volume of 10 μL supernatant was transferred to a 96 well plate for GpLuc measurement. Then, coelenterazine working solution (100 μM) was prepared (1 mL coelenterazine stock solution (4.72 mM in EtOH) in 49 mL phosphate buffered saline supplemented with 5 mM NaCl, pH 7.2). A volume of 100 μL coelenterazine working solution was used as a substrate for GpLuc and measured after 5 seconds in a commercially available microplate reader.
As a read-out for transfection efficiency, […] mRNA (SEQ ID:NO 15) was used as a cargo. A successful transfection with the cargo leads to the translation of the luciferase protein and to a secretion of Gp luciferase protein into the cell culture supernatant.
For a subset on hydrogel, a volume of 0.2 mL Sol8 cells (20.000 cells) were seeded in 96 well glass bottom plates (Softwell Hydrogel coated with collagen (elasticity E=12 kPa)). For another subset without hydrogel, a volume of 0.2 mL with 10.000 Sol8 cells per well were seeded in a 96 well glass bottom plates.
After removing the medium from each well, 100 μL DMEM medium (with 2% horse serum) was added to each well. […] Twenty-four hours post transfection, 10 μL of supernatant of each well was extracted and used for further luminescence analysis, which was performed as described in Example 5.

[1] = tested on: HepG2 cells (human liver carcinoma cell line); test: Transfection efficiency on HepG2 cells in vitro (GpLuc luminescence in supernatant); type: cell-based; conditions: GpLuc mRNA, 24 h (FIG. 2A)
Description: This example describes the evaluation of the effect of different polymer-lipid formulations on transfection efficiency on HepG2 cells (human liver carcinoma cell line). As a read-out for transfection efficiency, GpLuc mRNA (SEQ ID NO:14) was used as a cargo.
Successful transfection with the cargo leads to the translation of the luciferase protein and to a secretion of Gp luciferase protein into the cell culture supernatant.
A volume of 0.2 mL HepG2 cells (10.000 cells) were seeded in a 96 well tissue culture plate. After removing the medium from each well, 100 μL RPMI 1640 medium (with 1% Penicillin and 1% Streptomycin, 1% L-Glutamin) was added to each well. Afterwards, HepG2 cells were transfected with 100 μL transfection mix (in triplicates) of polymer-lipid mRNA complexes (prepared according to Example 3) and respective controls (in triplicates), and cells were incubated at 37° C. and 5% CO2 for 90 minutes. […] Twenty-four hours post transfection, 10 μL of supernatant of each well was extracted and used for further luminescence analysis (see below).
A volume of 10 μL supernatant was transferred to a 96 well plate for GpLuc measurement. […] A volume of 100 μL coelenterazine working solution was used as a substrate for GpLuc and measured after 5 seconds in a commercially available microplate reader.

With CCCCCCCC/C=C\CCCCCCCC(=O)OCC(C[N+](C)(C)C)OC(=O)CCCCCCC/C=C\CCCCCCCC.[Cl-] (stereo not drawn) [N-[1-(2,3-dioleoyloxy)propyl]-N,N,N-trimethylammonium chloride] the “increase of expression levels in Sol8 cells” value (Sol8 cells) was “effective”.

In the case of CCCCC/C=C\C/C=C\CCCCCCCCC1(CCCCCCCC/C=C\C/C=C\CCCCC)OCC(CCN(C)C)O1 (stereo not drawn) [KC2, 2,2-dilinoleyl-4-(2-dimethylaminoethyl)[1,3]-dioxolane], the “transfection efficiency compared to PB83 polymer alone” value ([1]; combination with polymer PB83, high-charge complexes (N/P 4), 1 and 2 nmol/μg RNA lipid) is reported as “this effect was observable”.

For CCCCC/C=C\C/C=C\CCCCCCCCC(CCCCCCCC/C=C\C/C=C\CCCCC)OC(=O)CCCN(C)C [MC3, (6Z,9Z,28Z,31Z)-heptatriaconta-6,9,28,31-tetraen-19-yl-4-(dimethylamino)butanoate], the “transfection efficiency compared to PB83 polymer alone” value ([1]; combination with polymer PB83, low charge complexes (N/P 0.7), 0.4 and 1 nmol/μg RNA lipid) was “increase in transfection efficiency”.
